Measurements reported in article PMC9697349, “Mouse Pharmacokinetics and In Vitro Metabolism of SH-11037 and SH-11008, Synthetic Homoisoflavonoids for Retinal Neovascularization” (Pharmaceutics, 2022).

Columns and labels:
[1] = assay type: in vitro ADME; details: BNPP 1 mM, 2 h preincubation; SH-11037 1 µM, mouse eye homogenate, 1 min
Method: (§1) Chemical inhibition assay was conducted in mouse, dog, and human plasma and mouse eye homogenate to identify the enzyme(s) involved in the hydrolysis of SH-11037. BW284c51 [16], DTNB [17], EPZ [18], and BNPP [19, 20] were used as selective inhibitors of acetylcholinesterase (AChE), paraoxonase 1 (PON1), butyrylcholinesterase (BchE), and carboxylesterase (CES), respectively. Mouse eyes (male ICR mouse, 8 weeks old) taken immediately after CO2 asphyxiation were homogenized by an electric tissue homogenizer (Tissue Master-125, Omni International, Kennesaw, GA, USA) in an equal amount of 0.1 M potassium phosphate buffer (pH 7.4) on ice. The resulting homogenate was then centrifuged at 3000× g for 20 min. The supernatant was stored at −80 °C until the experiment. DMSO stock solutions of the inhibitors (0.4, 4 and 40 mM) were mixed with plasma diluted 3-fold with 0.1 M phosphate buffer (pH 7.4) to a final volume of 160 μL and final inhibitor concentrations of 0.01, 0.1, and 1 mM. The supernatant of mouse eye homogenate was treated similarly with only BNPP as the inhibitor and a single inhibitor concentration of 1 mM. The resulting pre-incubation solutions were then incubated for 2 h at 37 °C in a shaking water bath. SH-11037 (40 μM) in 50 vol% aqueous CH3CN was mixed with the pre-incubation solutions to a final volume of 160 μL and a final concentration of 1 μM. The resulting solutions were then incubated at 37 °C in a shaking water bath. The incubations were terminated at selected times by adding 160 µL of ice-cold CH3CN containing glipizide (500 ng/mL) as the IS. The resulting mixture was vortexed, sonicated, and centrifuged at 3000× g for 20 min. Aliquots of the supernatant were subjected to LC-MS/MS analysis described below in Section 2.6.2.
(§2) The LC-MS/MS system consisted of Agilent 1290 Infinity HPLC system and Agilent 6530 Accurate-Mass Quadrupole Time-of-Flight (Q-TOF) mass spectrometer equipped with dual AJS ESI ion source (Agilent Technologies Korea, Seoul, Korea). Chromatographic separation was performed on an Agilent Eclipse Plus C18 column (2.1 × 100 mm, 3.5 μm) with a Phenomenex Security Guard C18 guard column (4 × 20 mm) maintained at 40 °C. The mobile phase consisted of 0.1% formic acid in deionized water (A) and 0.1% formic acid in CH3CN (B): 0~2 min 5% B, 2~7 min to 95% B, and 7~10 min 95% B. Total run time including a 5 min equilibration time was 15 min. The flow rate was 0.4 mL/min. The injection volume was 5 µL. The mass spectrometer was operated in a positive Auto MS/MS scan mode with a full scan mass range of m/z 100–1000, fragmentor voltage 150 V, and CE 30 eV, selecting the two most intense precursor ions for collision-induced dissociation. Putative metabolites were identified using Agilent Mass Hunter Metabolite ID software (ver.B.04.00) followed by manual interpretation of the spectral data. Chromatograms and mass spectra were extracted using Agilent Mass Hunter Qualitative Analysis software (ver. B.05.00).

[2] = system: hydrolysis of SH-11037 in mouse plasma; assay type: in vitro ADME; details: inhibitor 1 mM; SH-11037 1 µM, mouse plasma, 1 min, 37 °C
Method: as §1, §2

[3] = parameters: method as in PMID 30713251; details: cited from earlier work

Structure (SMILES)	effect of inhibitor on SH-11037 hydrolysis [1]	SH-11008 Formation (%) in presence of inhibitor [2]	oral absorption [3]	systemic clearance (CL) [3]
O=[N+]([O-])c1ccc(OP(=O)(O)Oc2ccc([N+](=O)[O-])cc2)cc1 [BNPP, bis(4-nitrophenyl)phosphate, reference compound]	inhibited the hydrolysis nearly completely	completely inhibited	–	–
COc1ccc(CC2COc3cc(O)c(OC)c(O)c3C2=O)cc1O (stereo not shown) [cremastranone, Cremastranone]	–	–	poor	high
